In the supplement of paper PMC11061612:

Experiments:
Assay in all cases: combination Emax (second highest fraction inhibited in the dose matrix, 72 h); higher = more inhibition; extreme values may be limits of the assay
[1] = test system: SK-MG-1 (Low Grade Glioma)
Outline: (§1)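 Bliss excess equals the observed combination effect minus the expected value EA + EB − EA·EB, where EA and EB are the effects of each agent alone. Combination Emax is the second-highest inhibition within the matrix. Inhibition was scaled from CellTiter-Glo 2.0 luminescence, with 0 set by vehicle wells and 1 by blank wells, after 72 hours of two-drug dosing of cells plated in 1536-well plates.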

[2] = test system: TT (Thyroid Gland Carcinoma)
Outline: as §1

8-MG-BA (Glioblastoma) = test system: 8-MG-BA (Glioblastoma)
Outline: as §1

NY (Osteosarcoma) = test system: NY (Osteosarcoma)
Outline: as §1

[3] = test system: PANC-10-05 (Pancreatic Carcinoma)
Outline: as §1

A498 (Kidney Carcinoma) = test system: A498 (Kidney Carcinoma)
Outline: as §1

[4] = test system: CAL-29 (Bladder Carcinoma)
Outline: as §1

[5] = test system: A3-KAW (B-Cell Non-Hodgkin's Lymphoma)
Outline: as §1

ARH-77 (Non-Cancerous) = test system: ARH-77 (Non-Cancerous)
Outline: as §1

[6] = test system: COLO-824 (Breast Carcinoma)
Outline: as §1

Hs-445 (Non-Cancerous) = test system: Hs-445 (Non-Cancerous)
Outline: as §1

[7] = test system: NCI-H1581 (Non-Small Cell Lung Carcinoma)
Outline: as §1

NCI-H2591 (Mesothelioma) = test system: NCI-H2591 (Mesothelioma)
Outline: as §1

[8] = test system: VCaP (Prostate Carcinoma)
Outline: as §1

[9] = test system: JSC-1 (B-Cell Non-Hodgkin's Lymphoma)
Outline: as §1

[10] = test system: NCI-H1666 (Lung Adenocarcinoma)
Outline: as §1

[11] = test system: CCK-81 (Colorectal Carcinoma)
Outline: as §1

[12] = test system: MDST8 (Colorectal Carcinoma)
Outline: as §1

IGR-37 (Melanoma) = test system: IGR-37 (Melanoma)
Outline: as §1

GI-ME-N (Neuroblastoma) = test system: GI-ME-N (Neuroblastoma)
Outline: as §1

Compound	combination Emax [1]	combination Emax [2]	combination Emax (8-MG-BA (Glioblastoma))	combination Emax (NY (Osteosarcoma))	combination Emax [3]	combination Emax (A498 (Kidney Carcinoma))	combination Emax [4]	combination Emax [5]	combination Emax (ARH-77 (Non-Cancerous))	combination Emax [6]	combination Emax (Hs-445 (Non-Cancerous))	combination Emax [7]	combination Emax (NCI-H2591 (Mesothelioma))	combination Emax [8]	combination Emax [9]	combination Emax [10]	combination Emax [11]	combination Emax [12]	combination Emax (IGR-37 (Melanoma))	combination Emax (GI-ME-N (Neuroblastoma))
C=CCn1c(=O)c2cnc(Nc3ccc(N4CCN(C)CC4)cc3)nc2n1-c1cccc(C(C)(C)O)n1 [AZD1775] + C1CN(CCC1(C(=O)N[C@@H](CCO)C2=CC=C(C=C2)Cl)N)C3=NC=NC4=C3C=CN4 [Capivasertib] (first compound max 3 µM, partner max 3 µM)	0.591	0.264	0.975	0.737	0.594	0.671	0.839	0.987	0.983	0.79	0.855	0.857	0.178	0.647	0.911	0.55	0.85	0.704	0.813	0.451
C=CCn1c(=O)c2cnc(Nc3ccc(N4CCN(C)CC4)cc3)nc2n1-c1cccc(C(C)(C)O)n1 [AZD1775] + O=C(c1cc(Cc2n[nH]c(=O)c3ccccc23)ccc1F)N1CCN(C(=O)C2CC2)CC1 [Olaparib] (first compound max 1 µM, partner max 10 µM)	0.572	0.273	0.77	0.578	0.465	0.51	0.612	0.944	0.929	0.685	0.899	0.568	0.253	0.631	0.856	0.335	0.894	0.408	0.776	0.337
CCN(CCO)CCCOc1ccc2c(Nc3cc(CC(=O)Nc4cccc(F)c4)[nH]n3)ncnc2c1 [AZD2811] + C=CCn1c(=O)c2cnc(Nc3ccc(N4CCN(C)CC4)cc3)nc2n1-c1cccc(C(C)(C)O)n1 [AZD1775] (first compound max 1 µM, partner max 1 µM)	0.455	0.365	0.744	0.527	0.354	0.458	0.633	0.902	0.95	0.813	0.882	0.688	0.194	0.558	0.809	0.327	0.849	0.465	0.737	0.29
CCN(CCO)CCCOc1ccc2c(Nc3cc(CC(=O)Nc4cccc(F)c4)[nH]n3)ncnc2c1 [AZD2811] + C[C@@H]1COCCN1C2=NC(=NC(=C2)C3(CC3)[S@](=N)(=O)C)C4=C5C=CNC5=NC=C4 [AZD6738] (first compound max 1 µM, 7x7, partner max 10 µM)	0.515	0.475	0.785	0.619	0.389	0.647	0.67	0.968	0.941	0.802	0.832	0.474	0.315	0.289	0.744	0.28	0.891	0.724	0.711	0.552
CCN(CCO)CCCOc1ccc2c(Nc3cc(CC(=O)Nc4cccc(F)c4)[nH]n3)ncnc2c1 [AZD2811] + O=C(c1cc(Cc2n[nH]c(=O)c3ccccc23)ccc1F)N1CCN(C(=O)C2CC2)CC1 [Olaparib] (first compound max 1 µM, 7x7, partner max 10 µM)	0.405	0.458	0.52	0.169	0.181	0.241	0.288	0.688	0.474	0.797	0.426	0.344	0.182	0.224	0.213	0.284	0.254	0.338	0.0609	0.196
CN(CCO)CC[C@H](CSc1ccccc1)Nc1ccc(S(=O)(=O)NC(=O)c2ccc(N3CCC([C@@H](O)c4ccccc4-c4ccc(Cl)cc4)CC3)cc2)cc1S(=O)(=O)C(F)(F)F [AZD4320] + C1CN(CCC1(C(=O)N[C@@H](CCO)C2=CC=C(C=C2)Cl)N)C3=NC=NC4=C3C=CN4 [Capivasertib] (first compound max 1 µM, 7x7, partner max 3 µM)	0.413	0.408	0.291	0.0978	0.265	0.57	0.221	0.367	0.841	1	0.805	0.0979	0.101	0.404	0.124	0.201	0.135	0.914	0.186	0.153
CN(CCO)CC[C@H](CSc1ccccc1)Nc1ccc(S(=O)(=O)NC(=O)c2ccc(N3CCC([C@@H](O)c4ccccc4-c4ccc(Cl)cc4)CC3)cc2)cc1S(=O)(=O)C(F)(F)F [AZD4320] + C=CCn1c(=O)c2cnc(Nc3ccc(N4CCN(C)CC4)cc3)nc2n1-c1cccc(C(C)(C)O)n1 [AZD1775] (first compound max 1 µM, partner max 1 µM)	0.91	0.484	0.785	0.793	0.481	0.628	0.942	0.892	1	1	1	0.475	0.159	0.717	0.904	0.302	0.775	0.992	0.762	0.334
CN(CCO)CC[C@H](CSc1ccccc1)Nc1ccc(S(=O)(=O)NC(=O)c2ccc(N3CCC([C@@H](O)c4ccccc4-c4ccc(Cl)cc4)CC3)cc2)cc1S(=O)(=O)C(F)(F)F [AZD4320] + CCN(CCO)CCCOc1ccc2c(Nc3cc(CC(=O)Nc4cccc(F)c4)[nH]n3)ncnc2c1 [AZD2811] (first compound max 1 µM, 7x7, partner max 1 µM)	0.731	0.615	0.21	0.121	0.18	0.218	0.545	0.371	0.95	1	0.926	0.445	0.561	0.194	0.341	0.154	0.178	0.918	0.116	0.19
CN(CCO)CC[C@H](CSc1ccccc1)Nc1ccc(S(=O)(=O)NC(=O)c2ccc(N3CCC([C@@H](O)c4ccccc4-c4ccc(Cl)cc4)CC3)cc2)cc1S(=O)(=O)C(F)(F)F [AZD4320] + C[C@@H]1COCCN1C2=NC(=NC(=C2)C3(CC3)[S@](=N)(=O)C)C4=C5C=CNC5=NC=C4 [AZD6738] (first compound max 1 µM, 7x7, partner max 10 µM)	0.644	0.726	0.864	0.903	0.504	0.722	0.928	0.986	1	1	1	0.364	0.612	0.577	0.888	0.418	0.828	0.944	0.796	0.499
CN(CCO)CC[C@H](CSc1ccccc1)Nc1ccc(S(=O)(=O)NC(=O)c2ccc(N3CCC([C@@H](O)c4ccccc4-c4ccc(Cl)cc4)CC3)cc2)cc1S(=O)(=O)C(F)(F)F [AZD4320] + Cc1cc2ncnn2cc1Nc1ncc2c(n1)n(C1CCOCC1)c(=O)n2C [AZD7648] (first compound max 1 µM, 7x7, partner max 10 µM)	0.295	0.209	0.168	0.156	0.311	0.37	0.21	0.344	0.841	1	0.746	0.271	0.188	0.165	0.246	0.197	0.111	0.821	0.18	0.153
CN(CCO)CC[C@H](CSc1ccccc1)Nc1ccc(S(=O)(=O)NC(=O)c2ccc(N3CCC([C@@H](O)c4ccccc4-c4ccc(Cl)cc4)CC3)cc2)cc1S(=O)(=O)C(F)(F)F [AZD4320] + Cn1cnc2c(F)c(Nc3ccc(Br)cc3Cl)c(C(=O)NOCCO)cc21 [Selumetinib] (first compound max 1 µM, 7x7, partner max 3 µM)	0.441	0.781	0.367	0.556	0.479	0.694	0.634	0.861	0.896	1	0.99	0.4	0.242	0.208	0.707	0.697	0.491	0.955	0.885	0.345
COc1nnc2ccc(N3CCC(c4ccc(OCCN5CCN(C)C(=O)[C@H]5C)cc4)CC3)nn12 [AZD5153] + C=CCn1c(=O)c2cnc(Nc3ccc(N4CCN(C)CC4)cc3)nc2n1-c1cccc(C(C)(C)O)n1 [AZD1775] (first compound max 1 µM, partner max 1 µM)	0.618	0.563	0.801	0.567	0.597	0.534	0.524	1	0.968	0.863	0.71	0.866	0.448	0.767	0.901	0.413	0.869	0.461	0.775	0.393
